Test results: patent US10759816B2, “Heterocyclic compounds as RSV inhibitors” (Enanta Pharmaceuticals, Inc., priority 2016, dated 2020)

These compounds were tested on genotype A, "Long" strain RSV (assay: RSV-A in vitro cytoprotection assay in HEp-2 cells (ATPlite readout of cell viability)). Conditions: HEp-2 cells, genotype A “Long” strain RSV, cytoprotection; read-out: Human RSV-A (“Long” strain) EC50.
Type: cell-based, Human respiratory syncytial virus
How it was run: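 HEp-2 cells (8,000/well) given 2-fold compound dilutions in duplicate, then infected with RSV-A Long strain stock; viability read by ATPlite luminescence after 4 days. EC50 derived from cytoprotection; cytotoxicity measured on parallel uninfected plate.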
With `O=C(NC1CC1)c1cc2c(s1)-c1ccccc1N(C(=O)c1cccc(-c3cnn(C4CCOCC4)c3)n1)CC2` [Example 150] the EC50 was > 800 nM.

Same assay, conditions: human respiratory syncytial virus, HEp-2, HEp-2 cells, genotype A “Long” strain RSV, cytoprotection; read-out: Human RSV-A (“Long” strain) EC50
`Cc1cccc(F)c1NC(=O)c1cc2c(s1)-c1ccccc1N(C(=O)c1cccc(N3CCN(C)S(=O)(=O)CC3)n1)CC2` [Example 447] was tested, and the EC50 was < 400 nM.
`Cc1cnc(N2CC3(CCCOC3)C2)c(NC(=O)c2ccc(C(=O)N3CCc4cc(C(=O)Nc5c(C)cccc5F)sc4-c4ccccc43)cc2)c1` [Example 138] was tested, and the EC50 was > 800 nM.
`Cc1cccc(F)c1NC(=O)c1cc2c(s1)-c1ccccc1N(C(=O)c1cccc(N[C@H]3CCCNC3=O)n1)CC2` [Example 477] was tested, and the EC50 was > 800 nM.
In the case of `Cc1cccc(F)c1NC(=O)c1cc2c(s1)-c1ccccc1N(C(=O)c1cccc(NCC3CCCS3(=O)=O)n1)CC2` (centres unmarked) [Example 462], the EC50 is reported as < 400 nM.
With `Cc1cccc(F)c1NC(=O)c1cc2c(s1)-c1ccccc1N(C(=O)c1cccc(-c3cn(C(=O)C(C)C)nc3C3CC3)n1)CC2` [Example 225] the EC50 was < 400 nM.
`Cc1cccc(F)c1NC(=O)c1cc2c(s1)-c1ccccc1N(C(=O)c1cccc(N3CCOCC(F)(F)C3)n1)CC2` [Example 400] was tested, and the EC50 was < 400 nM.
In the case of `Cc1cccc(F)c1NC(=O)c1cc2c(s1)-c1ccccc1N(C(=O)c1cccc(-c3cn(S(C)(=O)=O)nc3C3CC3)n1)CC2` [Example 215], the EC50 is reported as < 400 nM.
Compound `Cc1cccc(F)c1NC(=O)c1cc2c(s1)-c1ccccc1N(C(=O)c1cccc(N(CCO)C3CC3)n1)CC2` [Example 326] has an EC50 of 400 to 800 nM.
In the case of `COc1ccc(=O)n(-c2cccc(C(=O)N3CCc4cc(C(=O)Nc5c(C)cccc5F)sc4-c4ccccc43)n2)c1` [Example 407], the EC50 is reported as > 800 nM.
For `Cc1cccc(F)c1NC(=O)c1cc2c(s1)-c1ccccc1N(C(=O)c1cccc(N3CCS(=O)(=O)CC3C)n1)CC2` (centres unmarked) [Example 432], the EC50 was < 400 nM.
`O=C(Nc1ccccn1)c1cc2c(s1)-c1ccccc1N(C(=O)c1cccc(N3CCOc4ccccc4C3)n1)CC2` [Example 300] was tested, and the EC50 was > 800 nM.
`Cc1cccc(F)c1NC(=O)c1cc2c(s1)-c1ccccc1N(C(=O)c1cccc(-c3ccc4ccc(=O)[nH]c4c3)n1)CC2` [Example 191] was tested, and the EC50 was > 800 nM.
`O=C(NC1CC1)c1cc2c(s1)-c1ccccc1N(C(=O)c1cccc(N3CCOc4cc(Br)ccc4C3)n1)CC2` [Example 281] was tested, and the EC50 was < 400 nM.
Compound `CC(=O)N1CCN(c2cccc(C(=O)N3CCc4cc(C(=O)NC5CC5)sc4-c4ccccc43)n2)CC1` [Example 20] has an EC50 of 400 to 800 nM.
`Cc1cc(CNc2cccc(C(=O)N3CCc4cc(C(=O)Nc5c(C)cccc5F)sc4-c4ccccc43)n2)on1` [Example 349] was tested, and the EC50 was < 400 nM.
With `O=C(Nc1cccc(=O)[nH]1)c1cc2c(s1)-c1ccccc1N(C(=O)c1cccc(N3CCOc4ccccc4C3)n1)CC2` [Example 304] the EC50 was > 800 nM.
With `Cc1cccc(F)c1NC(=O)c1cc2c(s1)-c1ccccc1N(C(=O)c1cccc(-n3nnc4ncccc43)n1)CC2` [Example 123] the EC50 was > 800 nM.
For `O=C(NC1CC1)c1cc2c(s1)-c1ccccc1N(C(=O)c1cccc(N3CCOc4ccccc43)n1)CC2` [Example 319], the EC50 was > 800 nM.
`O=C(Nc1ccccc1)c1cc2c(s1)-c1ccccc1N(C(=O)c1cccc(N3CCOc4ccccc4C3)n1)CC2` [Example 299] gave an EC50 of 400 to 800 nM.
With `Cc1cccc(F)c1NC(=O)c1cc2c(s1)-c1ccccc1N(C(=O)c1cccc(-c3cn(C)nc3C3CC3)n1)CC2` [Example 197] the EC50 was < 400 nM.
`COc1ccc(-c2cccc(C(=O)N3CCc4cc(C(=O)NC5CC5)oc4-c4ccccc43)n2)cn1` [Example 107] gave an EC50 of 400 to 800 nM.
In the case of `O=C(NCC1CC1)c1cc2c(s1)-c1ccccc1N(C(=O)c1cccc(N3CCCOCC3)n1)CC2` [Example 100], the EC50 is reported as < 400 nM.
For `COCCN(c1ccccc1)c1cccc(C(=O)N2CCc3cc(C(=O)Nc4c(C)cccc4F)sc3-c3ccccc32)n1` [Example 115], the EC50 was < 400 nM.
`Cc1cccc(F)c1NC(=O)c1cc2c(s1)-c1ccccc1N(C(=O)c1cccc(NCc3cccc4ccccc34)n1)CC2` [Example 345] was tested, and the EC50 was > 800 nM.
`Cc1noc([C@H]2C[C@H](O)CN2c2cccc(C(=O)N3CCc4cc(C(=O)Nc5c(C)cccc5F)sc4-c4ccccc43)n2)n1` [Example 497] was tested, and the EC50 was > 800 nM.
In the case of `CN(C)C(=O)c1cc2c(s1)-c1ccccc1N(C(=O)c1cccc(N3CCCOCC3)n1)CC2` [Example 99], the EC50 is reported as > 800 nM.
With `Cc1cccc(F)c1NC(=O)c1cc2c(s1)-c1ccccc1N(C(=O)c1cccc(NC(C)CS(C)(=O)=O)n1)CC2` (centres unmarked) [Example 464] the EC50 was > 800 nM.
`O=C(NC1CC1)c1cc2c(s1)-c1ccccc1N(C(=O)c1cccc(N3CCOCC3)c1)CC2` [Example 4] was tested, and the EC50 was > 800 nM.
`Cc1cccc(F)c1NC(=O)c1cc2c(s1)-c1ccccc1N(C(=O)c1cccc(NC[C@@H]3CCCO3)n1)CC2` [Example 459] was tested, and the EC50 was < 400 nM.
`O=C(NC1CC1)c1cc2c(s1)-c1ccccc1N(C(=O)c1cccc(-c3cccnc3N3CCCOCC3)n1)CC2` [Example 88] gave an EC50 of 400 to 800 nM.
In the case of `COc1ccc(-c2cccc(C(=O)N3CCc4sc(C(=O)NC5CC5)nc4-c4ccccc43)n2)cn1` [Example 109], the EC50 is reported as > 800 nM.
Work on `O=C(NC1CC1)c1cc2c(s1)-c1ccccc1N(C(=O)c1cccc(-c3cccnc3N3CCOCC3)n1)CC2` [Example 87] yielded an EC50 of 400 to 800 nM.
`COCCOc1ccc(-c2cccc(C(=O)N3CCc4cc(C(=O)NC5CC5)sc4-c4ccccc43)n2)cn1` [Example 74] was tested, and the EC50 was 400 to 800 nM.
For `Cc1cccc(F)c1NC(=O)c1cc2c(s1)-c1ccccc1N(C(=O)c1cccc(N(C)Cc3ccc4ncccc4c3)n1)CC2` [Example 360], the EC50 was < 400 nM.
`Cn1nccc1-c1cccc(C(=O)N2CCc3cc(C(=O)Nc4ccccc4N)sc3-c3ccccc32)n1` [Example 242] was tested, and the EC50 was < 400 nM.
In the case of `COCCN(CC(C)C)c1cccc(C(=O)N2CCc3cc(C(=O)Nc4c(C)cccc4F)sc3-c3ccccc32)n1` [Example 118], the EC50 is reported as < 400 nM.
For `Cc1cccc(F)c1NC(=O)c1cc2c(s1)-c1ccccc1N(C(=O)c1ccc(Nc3cccnc3N3CC4(CCOCC4)C3)cc1)CC2` [Example 134], the EC50 was > 800 nM.
In the case of `CNC(=O)n1ncc(-c2cccc(C(=O)N3CCc4cc(C(=O)Nc5c(C)cccc5F)sc4-c4ccccc43)n2)c1C1CC1` [Example 218], the EC50 is reported as < 400 nM.
In the case of `O=C(NC1CC1)c1cc2c(s1)-c1ccccc1N(C(=O)c1cccc(-c3cncn3C3CC3)n1)CC2` [Example 165], the EC50 is reported as < 400 nM.
`O=C(NC1CC1)c1cc2c(s1)-c1ccccc1N(C(=O)c1cccc(C3CCOCC3)n1)CC2` [Example 60] showed an EC50 of 400 to 800 nM.
For `Cc1cccc(F)c1NC(=O)c1cc2c(s1)-c1ccccc1N(C(=O)c1ccc(-c3c[nH]c4ncccc34)cc1)CC2` [Example 266], the EC50 was > 800 nM.
In the case of `O=C(c1cccc(N2CCCOCC2)n1)N1CCc2cc(S(=O)(=O)NC3CCOCC3)sc2-c2ccccc21` [Example 318], the EC50 is reported as > 800 nM.
For `Cc1cccc(F)c1NC(=O)c1cc2c(s1)-c1ccccc1N(C(=O)c1ccc(NS(=O)(=O)c3cccnc3N3CC4(CCOCC4)C3)cc1)CC2` [Example 132], the EC50 was > 800 nM.
For `Cc1cccc(F)c1NC(=O)c1cc2c(s1)-c1ccccc1N(C(=O)c1cccc(N3CCS(=O)(=O)CC3)n1)CC2` [Example 418], the EC50 was < 400 nM.
In the case of `COc1ccccc1CN(C)c1cccc(C(=O)N2CCc3cc(C(=O)NC4CC4)sc3-c3ccccc32)n1` [Example 289], the EC50 is reported as > 800 nM.
For `O=C(NC1CC1)c1cc2c(s1)-c1ccccc1N(C(=O)c1cccc(-n3cnc4ncccc43)n1)CC2` [Example 121], the EC50 was > 800 nM.
For `Cc1cccc(F)c1NC(=O)c1cc2c(s1)-c1ccccc1N(C(=O)c1cccc(N3CCCNCC3)n1)CC2` [Example 381], the EC50 was > 800 nM.
For `O=C(NC1CC1)c1cc2c(s1)-c1ccccc1N(C(=O)c1cccc(N3CCN(C4COC4)CC3)n1)CC2` [Example 27], the EC50 was 400 to 800 nM.
Work on `Cc1cccc(F)c1NC(=O)c1cc2c(s1)-c1ccccc1N(C(=O)c1cccc(N(C)CCNC(=O)OC(C)(C)C)n1)CC2` [Example 370] yielded an EC50 of 400 to 800 nM.
For `Cc1cccc(F)c1NC(=O)c1cc2c(s1)-c1cccc(F)c1N(C(=O)c1cccc(-c3c[nH]c4ncccc34)n1)CC2` [Example 259], the EC50 was < 400 nM.
In the case of `O=C(NC1CC1)c1cc2c(s1)-c1ccccc1N(C(=O)c1cccc(C3=CCNCC3)n1)CC2` [Example 54], the EC50 is reported as > 800 nM.
In the case of `Cc1cccc(F)c1NC(=O)c1cc2c(s1)-c1ccccc1N(C(=O)c1cccc(N3CCCN(S(=O)(=O)C4CC4)CC3)n1)CC2` [Example 382], the EC50 is reported as < 400 nM.
With `Cc1cccc(F)c1NC(=O)c1cc2c(s1)-c1ccccc1N(C(=O)c1cccc(-n3cncc3C3CC3)n1)CC2` [Example 148] the EC50 was > 800 nM.
With `Cc1cccc(F)c1NC(=O)c1cc2c(s1)-c1ccccc1N(C(=O)c1cccc(-c3cncn3-c3ccccc3F)n1)CC2` [Example 205] the EC50 was > 800 nM.
For `Cc1cccc(F)c1NC(=O)c1cc2c(s1)-c1ccccc1N(C(=O)c1cccc(-c3ccc4occc4c3)n1)CC2` [Example 193], the EC50 was > 800 nM.
`Cc1cccc(F)c1NC(=O)c1cc2c(s1)-c1ccccc1N(C(=O)c1cccc(N(C)Cc3cccc(-c4ccccc4)c3)n1)CC2` [Example 352] showed an EC50 of 400 to 800 nM.
For `Cc1cccc(F)c1NC(=O)c1cc2c(s1)-c1ccccc1N(C(=O)c1cccc(-c3c[nH]c4ccccc34)n1)CC2` [Example 207], the EC50 was < 400 nM.
With `COC[C@H]1CCCN1c1cccc(C(=O)N2CCc3cc(C(=O)Nc4c(C)cccc4F)sc3-c3ccc(Br)cc32)n1` [Example 498] the EC50 was < 400 nM.
`COc1ccc(CN(C)c2cccc(C(=O)N3CCc4cc(C(=O)Nc5c(C)cccc5F)sc4-c4ccccc43)n2)cc1` [Example 344] was tested, and the EC50 was < 400 nM.
With `Cc1cccc(F)c1NC(=O)c1cc2c(s1)-c1ccccc1N(C(=O)c1cccc(N3C[C@H]4COC[C@H]4C3)n1)CC2` [Example 376] the EC50 was > 800 nM.
With `COc1ccccc1C(C)(C)Nc1cccc(C(=O)N2CCc3cc(C(=O)NC4CC4)sc3-c3ccccc32)n1` [Example 322] the EC50 was > 800 nM.
With `O=C(NC1CC1)c1cc2c(s1)-c1ccccc1N(C(=O)c1cccc(N3CCOC[C@@H]3c3ccccc3)n1)CC2` [Example 276] the EC50 was > 800 nM.
Work on `O=C(NC1CC1)c1cc2c(s1)-c1ccccc1N(C(=O)c1cccc(N3C4CCC3COC4)n1)CC2` [Example 29] yielded an EC50 of 400 to 800 nM.
With `Cc1cccc(F)c1NC(=O)c1cc2c(s1)-c1ccccc1N(C(=O)c1cccc(NCC3OCc4ccccc43)n1)CC2` (centres unmarked) [Example 336] the EC50 was < 400 nM.
